Reference: patent publication US20240208998A1, “COMPOUNDS FOR USE IN THE TREATMENT OF HYPERPROLIFERATIVE DISORDERS” (FUNDACIÓ PRIVADA INSTITUT D'INVESTIGACIÓ ONCOLÓGICA DE VALL …, priority 2021, published 2024)

Columns and labels:
human TET2 construct = human TET2 construct (Homo sapiens, UniProt Q6N021, A1837G/A1840G/D1704G/D1842G/DEL1471-1702/DEL1708-1833/E1841G/F1706G/N1843S/Q1834G/V1836G); assay: Determination of TET2 binding by Surface Plasmon Resonance; conditions: SPR, Biacore T200, 25° C., steady state fit to single site interaction model
Procedure: The human methylcytosine dioxygenase TET2 construct used (1129-2002 with residues 1471-1843 replaced by a 15-residue GS-linker) was expressed in a pET-28a(+)psumo vector with kanamycin resistance and an N-terminal His6 tag, and cloned in Rosetta D3 Escherichia coli competent cells. Transformed cells were cultured overnight in 10 mL of LB media supplied with kanamycin (50 μg/mL), then scaled to 1 L LB medium supplied with kanamycin (50 μg/mL) and grown at 37° C. Once the optical density (OD600) achieved 0.8, protein expression was induced with 0.4 mM isopropyl-β-thiogalactopyranoside (IPTG) overnight at 18° C. Cells were harvested by centrifugation (8,000 rpm, 4° C., 30 min) and the pellet obtained was resuspended in 15 mL of buffer A (50 mM Hepes, 150 mM NaCl, 30 mM imidazole, 2 mM β-mercaptoethanol (pH 8.0) supplemented with Pierce protease inhibitor cocktail (ThermoFisher Scientific)) and lysed by sonication (1 min 40 s: 10 cycles×10 s ON, 30 s OFF, A=35%, T=19° C.) followed by two consecutive centrifugations (8,000 rpm, 4° C., 30 min) to clarify the lysate.
The TET2 protein was purified using an AKTA Start system (GE Healthcare, Uppsala, Sweden) by two-step purification procedure: one His-affinity chromatography followed by a size exclusion chromatography. First, the protein fraction obtained during the lysis (supernatant) was applied to a 5 mL HisTrap HP column (GE Healthcare), washed with buffer A (50 mM Hepes, 150 mM NaCl, 30 mM imidazole, 2 mM […] (pH 8.0)) and the bound protein was eluted with buffer B (50 mM Hepes, 150 mM NaCl, 250 mM imidazole, 2 mM β-mercaptoethanol (pH 8.0)). The eluted protein-containing fractions were pooled and concentrated up to 4 mL for the last purification step: a size exclusion chromatography (HiPrep 16/60 Sephacryl S-100 HR) in 50 mM Hepes, 150 mM NaCl, 2 mM β-mercaptoethanol (pH 8.0). Finally, the mass and purity of the protein were verified by SDS-electrophoresis and mass spectrometry.
The binding of compounds of the examples was determined by Surface Plasmon Resonance (SPR) using a Biacore T200 SPR biosensor instrument (GE Healthcare, Uppsala, Sweden) at 25° C. The human TET2 construct was immobilized on a CM5 sensor chip using a standard covalent immobilization via amine coupling following the activation of the carboxymethyl dextran matrix of the sensor chip (injection of a solution containing 0.1 M N-hydroxysuccinimide and 0.4 M 1-ethyl-3-[3-(dimethylamino)propyl]carbodiimide hydrochloride at a flow rate of 15 μL/min for 7 min). The protein immobilization was achieved after the injection of 5 μg/mL TET2 in 10 mM sodium acetate (pH 4.0) at a flow rate of 5 μL/min. Unreacted activated groups of the dextran matrix were deactivated by injection of 1 M ethanolamine hydrochloride for 7 min at a flow rate of 15 μL/min. The corresponding matrix activation and protein immobilization were performed using as a running buffer a phosphate buffered saline solution (1.05× PBS: 10 mM phosphate, pH 7.4, 150 mM NaCl). The screened compounds were prepared in a 20 mM stock solution in DMSO and diluted with 1.05× PBS to achieve a final 5% (v/v) DMSO concentration. The running buffer of the interaction assays consisted of 1×PBS, 5% (v/v) DMSO. The flow rate used for the screening was 60 μL/min and the ligand association and dissociation times set were 60 s and 120 s, respectively.
For data analysis the software used was the Biacore T200 Evaluation software. Different corrections were applied. First, the nonspecific binding to the chip surface and the baseline drift were corrected subtracting the signals of a reference surface (where the immobilization procedure was carried out without proteins) to the signals obtained on the TET2 surface. Second, a series of solvent standards (solvent correction) were introduced to remove the differences derived from the DMSO. Finally, the background was corrected subtracting blank injections (blank subtraction) to the injected compound signals.

HL60 cell line = assay: Antiproliferative activity on HL60 cell line (CellTiter-Glo); type: cell-based; conditions: Homo sapiens, HL-60; HL60, 72 h of treatment
Procedure: The human leukaemic cell line HL60 was grown in suspension in RPMI 1640 medium containing 10% (v/v) FBS and 1% (v/v) P/S (Life Technologies). […] Leukaemia cells were suspended at a density of 2×10^5 cells/mL in complete RPMI 1640 medium and 25 μL were seeded in each well (5×10^3 final total cells/well). A 10 μM solution of the compounds of examples 1, 12 and 21, and a 25 μM solution of all other compounds were prepared in complete medium, and then serially diluted (1:2) (as specified in Table 3 below). A solution of complete medium with DMSO was used as a vehicle control.
Twenty-five microliters of each serially diluted compound solution were added to the corresponding wells of the plate (50 μL of final volume/well). After 48 h of treatment, 50 μL of fresh 2X serially diluted compound solution was added to their corresponding wells (100 μL of final volume/well). After twenty-four additional hours, an equal volume (100 μL) of CellTiter-Glo Reagent (Promega) was added to each well, plates were shaken during 2 min and incubated at rt for 10 min. Luminescence was recorded using a Spark multimode microplate reader and an integration time of 1 s per well.

T98G (glioblastoma) = assay: Antiproliferative activity on other tumour cell lines (CellTiter-Glo): T98G; type: cell-based; conditions: Homo sapiens, 72 h of treatment
Procedure: (§1) Other human adherent cancer cell lines were cultured in their corresponding cell medium (as specified in Table 4) supplemented with 10% FBS (v/v) and 1% P/S (v/v). Twenty-four hours prior to treatment with the compounds to be tested (Examples 1, 12 and 21), the cells were seeded in 96-well plates at different densities depending of the cell line (as specified in Table 4).
(§2) Depending on the cell line, a 50, 125 or 250 μM solution of the compounds of examples 1, 12 and 21 were prepared in complete medium, and then serially diluted (1:2) (Table 5). A solution of complete medium with DMSO was used as a vehicle control.
(§3) Fifty microliters of each serially diluted compound solution was added by medium replacement in two wells (by duplicate). After 48 h of treatment, 50 μL of fresh 2X serially diluted compound solution was added to the corresponding wells of the plate (100 μL of final volume/well). After twenty-four additional hours (a total of 72 h of treatment), an equal volume (100 μL) of CellTiter-Glo Reagent (Promega) was added to each well, plates were shaken during 2 min and incubated at rt for 10 min. Luminescence was recorded using a Spark multimode microplate reader and an integration time of 1 s per well.

A375 (melanoma) = assay: Antiproliferative activity on other tumour cell lines (CellTiter-Glo): A375; type: cell-based; conditions: Homo sapiens, A-375; A375, 72 h of treatment
Procedure: as §1, §2, §3

Structure (SMILES)	Kd (human TET2 construct) [nM]	EC50 (HL60 cell line) [nM]	melting point [°C]	EC50 (T98G (glioblastoma)) [nM]	EC50 (A375 (melanoma)) [nM]
Cc1[nH]c2ccccc2c1-c1csc(NC(=O)Cc2cc(Br)cs2)n1 [Example 19, 2-(4-bromothiophen-2-yl)-N-[4-(2-methyl-1H-indol-3-yl)thiazol-2-yl]acetamide]	1000	809	212 to 214		
Cc1[nH]c2ccccc2c1-c1csc(NC(=O)Cc2c[nH]c3ccccc23)n1 [Example 13, 2-(1H-indol-3-yl)-N-[4-(2-methyl-1H-indol-3-yl)thiazol-2-yl]acetamide]	14000	1400	246 to 248		
Cc1[nH]c2ccccc2c1-c1nc(NC(=O)Cc2cn3ccsc3n2)sc1C [Example 4, 2-(imidazo[2,1-b]thiazol-6-yl)-N-[5-methyl-4-(2-methyl-1H-indol-3-yl)thiazol-2-yl]acetamide]	12000	2300	169 to 172		
Cc1[nH]c2ccccc2c1-c1csc(NC(=O)Cc2c[nH]c3ccc(F)cc23)n1 [Example 12, 2-(5-fluoro-1H-indol-3-yl)-N-[4-(2-methyl-1H-indol-3-yl)thiazol-2-yl]acetamide]	6000	497	230 to 232	23100	2700
Cc1[nH]c2ccccc2c1-c1csc(NC(=O)Cc2c[nH]c3ccc(O)cc23)n1 [Example 21, 2-(5-hydroxy-1H-indol-3-yl)-N-[4-(2-methyl-1H-indol-3-yl)thiazol-2-yl]acetamide]	7000	63	145 to 149	11400	1100
